Data as given in patent US20110152373A1, “HAIR GROWTH PROMOTING AGENT CONTAINING 15,15-DIFLUOROPROSTAGLANDIN F2ALPHA DERIVATIVE AS ACTIVE INGREDIENT” (SANTAN PHARMACEUTICAL CO., LTD., priority 2008, published 2011).

System: eyelashes of patients with open-angle glaucoma or ocular hypertension
Assay: European Phase III clinical trial: eyelash findings from photographs compared with base line
Format: in vivo, human
Conditions: for Color of eyelashes was changed (number of patients with finding) / Eyelashes were grown (number of patients with finding) / Eyelashes were made thicker (number of patients with finding): eye drop (0.0015% tafluprost or 0.005% latanoprost) once a day, one drop, total 264 patients per group
Experimental: A European Phase III clinical trial for tafluprost, one of the 15,15-difluoroprostaglandin F2α derivatives, with patients with open-angle glaucoma or ocular hypertension was performed by the following test method, and tafluprost was evaluated for findings associated with the eyelashes and an peripheral area thereof, that is, the evaluation was performed as to whether eyelashes were grown, eyelashes were made thicker, and the color of eyelashes was changed by the following evaluation method.
Patients with open-angle glaucoma or ocular hypertension were randomly allocated to two groups (a 0.0015% tafluprost eye drop group and a 0.005% latanoprost eye drop group) and received the eye drop once a day at a dose of one drop for 24 months in a double-blind manner after a washout period for 5 days to 4 weeks or more according to need prior to the glaucoma medication.
The eyelashes and eyelids were photographed at 0 (base line), 3, 6, 12, 18, and 24 months, and the photographs were compared with the base line, and the presence or absence of findings (eyelashes were grown, eyelashes were made thicker, and the color of eyelashes was changed) was confirmed.

Structure (SMILES)	Color of eyelashes was changed (number of patients with finding) (24 months)	Eyelashes were grown (number of patients with finding) (24 months)	Eyelashes were made thicker (number of patients with finding) (24 months)	Effect of promoting the growth of hair (eyelashes), in words (0.0015% eye drop once a day for 24 months, conclusion from Table 1)	Eyelash actions compared with those of latanoprost, in words (0.0015% tafluprost eye drop vs 0.005% latanoprost eye drop, 24 months)
CC(C)OC(=O)CCC/C=C\C[C@@H]1[C@@H](CC[C@@H](O)CCc2ccccc2)[C@H](O)C[C@@H]1O [Latanoprost, latanoprost, reference compound]	10 patients	11 patients	4 patients		
CC(C)OC(=O)CCC/C=C\C[C@@H]1[C@@H](/C=C/C(F)(F)COc2ccccc2)[C@H](O)C[C@@H]1O [Tafluprost, tafluprost]	13 patients	17 patients	5 patients	has actions of growing eyelashes, making eyelashes thicker, and changing the color thereof	significant effects as compared with those of latanoprost
